Data as given in patent US8729089B2 (Gilead Sciences, Inc., priority 2006, dated 2014).

Legend:
[1] = tested on: Huh-7 HCV replicon cells; experiment: CC50 assay (CellTiter-Glo) in Huh-7 HCV replicon cells; assay type: cell-based, human; details: 3 days incubation, CellTiter-Glo readout
In short: (§1)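 Cytotoxicity (CC50) measured by CellTiter-Glo and antiviral activity (EC50) by luciferase signal from lysed cells, both by luminescence. Replicon-bearing Huh-7 cells, 6000 per well, incubated 3 days at 37 °C with threefold-diluted compound (0.5% DMSO for DMSO-dissolved compounds).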

[2] = tested on: HCV replicon in human hepatoma Huh-7 cell line; experiment: Anti-HCV replicon assay (EC50, luciferase); assay type: cell-based
In short: as §1

[3] = CC50 assay (CellTiter-Glo) in Huh-7 HCV replicon cells; assay type: cell-based, human; details: human, 3 days incubation, CellTiter-Glo readout
In short: as §1

[4] = Huh-7 HCV replicon cells, 3 days incubation, luciferase readout

SMILES	CC50 [1] [µM]	EC50 [2, 4] [µM]	CC50 at 3 days [3] [µM]	EC50 ([2]; Hepatitis C virus, Huh-7, 72 h) [µM]
CC(Nc1nc(NCC(F)(F)F)c2nc(-c3ccc(F)cc3)ccc2n1)c1ccc(S(N)(=O)=O)cc1 (centres unmarked) [Example 250, 4-{1-[6-(4-Fluoro-phenyl)-4-(2,2,2-trifluoro-ethylamino)-pyrido[3,2-d]pyrimidin-2-ylamino]-ethyl}-benzenesulfonamide]	< 5	< 0.1		
CC(Nc1nc(NCC(F)(F)F)c2nc(-c3ccc(F)cc3)ccc2n1)c1ccc(S(N)(=O)=O)cc1 (centres unmarked) [Example 257, 4-{1-[6-(4-Fluoro-phenyl)-4-(2,2,2-trifluoro-ethylamino)-pyrido[3,2-d]pyrimidin-2-ylamino]-ethyl}-benzenesulfonamide]	5 to 25	< 0.1		
CC1(Oc2nc(NCc3ccc(S(N)(=O)=O)cc3)nc3ccc(-c4ccc(F)cc4)nc23)CC1 [Example 301, 4-{[6-(4-Fluoro-phenyl)-4-(1-methyl-cyclopropoxy)-pyrido[3,2-d]pyrimidin-2-ylamino]-methyl}-benzenesulfonamide]			< 5	< 0.1
N#CC1(Nc2nc(NCc3ccc(S(N)(=O)=O)cc3)nc3ccc(-c4ccc(F)cc4)nc23)CC1 [Example 303, 4-{[4-(1-Cyano-cyclopropylamino)-6-(4-fluoro-phenyl)-pyrido[3,2-d]pyrimidin-2-ylamino]-methyl}-benzenesulfonamide]			5 to 25	< 0.1
